Structures are written as SMILES.

The values that follow come from patent US20160220710A1, “COMPOSITIONS AND METHODS FOR DELIVERING PHARMACEUTICAL AGENTS” (THE REGENTS OF THE UNIVERSITY OF MICHIGAN, priority 2015, published 2016).

One data set deals with TLR4. Put plainly: TNFα ELISA after LPS stimulation. Particulars: Mus musculus, read-out: inhibition of TNFα production. Type of data set: cell-based, murine. As for the experimental part:
(§1) The murine macrophage cell line RAW 264.7 was purchased from ATCC (Manassas, Va.) and maintained in DMEM (Life Technologies, Carlsbad, Calif.) supplemented with 10% FBS. Soluble CFZ or isolated CLDIs were added at various concentrations in DMEM with 5% FBS to 6-well plates containing 4×10^5 cells/well and incubated (24 h at 37° C. and 5% CO2). Culture supernatants were harvested at 24 h, centrifuged (1500×g for 5 min), and stored (−20° C.) in frozen aliquots prior to analysis. For experiments involving TLR stimulation, cells were washed twice with pre-warmed DPBS to remove extracellular, non-phagocytosed CLDIs or CFZ, and then the cells were serum-starved for 18 h in DMEM. Supernatants were collected from unstimulated cells and cells stimulated with 200 ng/ml Pam3 or 1 μg/ml LPS in DMEM.
(§2) The media of cells with or without 6 h TLR stimulation by Pam3 or LPS was harvested, and TNFα and IL-1RA levels were measured by ELISA (Duoset, R&D Systems, Minneapolis, Minn.) in duplicate wells according to the manufacturer's instructions. The cytokine concentrations were expressed as picogram per milligram of cell lysate. Experiments were repeated three times and values are expressed as the mean±SD.

Data set [1] concerns caspase-3 and PARP cleavage. The data set can be described thus: Western blot of caspase 3, cleaved caspase 3 and cleaved PARP. Type of data set: cell-based, murine. Particulars: 4 and 10 μM, 24 h.
The subject of the next data set is IκB. The data set can be described thus: Western blot of phosphorylated IκB. The following applies: 1 h. Type of data set: cell-based, murine. As for the experimental part:
as §1

Data set [2] relates to TLR2, TLR4, TLR9 and MyD88. Put plainly: Western blot of TLR2, TLR4, TLR9 and MyD88 in RAW 264.7 cells. Type of data set: cell-based, murine. The following applies: 24 h incubation. As for the experimental part: as §1
The subject of a further data set is TLR2. Put plainly: TNFα ELISA after Pam3 stimulation. Particulars: Pam3, 2 and 4 μM. Type of data set: cell-based, murine. Here is the method: as §1, §2
Data set [3] deals with LPS-induced acute lung injury. The data set can be described thus: LPS-induced acute lung injury. Type of data set: in vivo, mice. As for the experimental part:
Since C57BL/6 mice are relatively resistant towards a single dose of intratracheal (IT) LPS instillation (Matute-Bello G et al., 2008 Am J Physiol Lung Cell Mol Physiol 295(3):L379-99), two IT injections of LPS (16 mg/kg; 50 μl) were administered, one on day 0 and the second on day 3. Briefly, 8 wk CFZ-treated and control mice were anesthetized using intraperitoneal injections of xylazine […]. Under direct visualization of the vocal cords using an otoscope, either LPS or an equivalent volume of PBS in a 1 mL syringe attached to an oral gavage needle (22 G) was instilled into the lungs via the oral route. The mouse was then placed in a temperature-controlled cage (37° C.) for recovery from anesthesia.
The general health status of each PBS/LPS-instilled mice was monitored by measuring body weight and rectal temperature (Microprobe Thermometer, Physitemp Instruments, Clifton, N.J.), and cardiopulmonary function (arterial oxygen saturation, respiratory rate, heart rate and pulse distention) was monitored using MouseOx with a collar clip sensor (Starr Life Sciences Corp, Oakmont, Pa.) as previously described (Lax S et al., (2014) BMJ open Respir Res 1(1):e000014; Nayak S, et al. (2014) PLoS One 9(6):e98336). In brief, one day before IT instillations (D-1) the hair around the neck of each mouse was removed using Nair (Church & Dwight, Princeton, N.J.) to enable data acquisition using the collar clip sensor. The next day (D 0), immediately prior to the first LPS/PBS dose, and every 24 h afterwards until day 6 (D 6), the body weight, temperature and MouseOx readings were recorded. MouseOx data was acquired by very brief anesthesia of the mouse using 5% isoflurane to facilitate the placement of the collar clip sensor. The mouse was then placed in an enclosed chamber with ambient light and allowed to acclimatize for 5 min at which point the animals had recovered normal activities and physiological readings. Arterial oxygen saturation, breath rate, heart rate and pulse distention measurements were then simultaneously recorded for 6 min (15 readings/sec), and any errors caused by motion during recording were excluded, after which the mean value of each parameter was used for further data analysis.
To objectively assess LPS-induced mortality, a multi-parametric scoring system that relied on the daily changes in vital signs associated with inflammatory injury progression and mortality which included arterial oxygen saturation was used (Lax et al., 2014, supra), body weight and temperature (Toth L A (2000) ILAR J 41(2):72-79; Nemzek et al., (2004) Humane endpoints in shock research. Shock 21(1):17-25). First, the percent change from baseline (D 0) in arterial oxygen saturation, body weight, and temperature in each mouse caused by IT instillation of PBS/LPS were measured and calculated daily until day 6 post-instillation. […] These mice were immediately euthanized with ketamine/xylazine and the bronchoalveolar lavage (BAL) and lungs were harvested for cellular and biochemical analysis (see below).
PBS/LPS-instilled CFZ- or control mice were euthanized by exsanguination while deeply anesthetized with an intraperitoneal injection of ketamine/xylazine. The trachea was surgically exposed and cannulated with an 18 G needle and the lungs were lavaged by instilling 1 ml DPBS (Life Technologies) containing 0.5 mM EDTA (Sigma). The retrieved BAL was then centrifuged (10 min at 400×g, 4° C.), and the supernatant was frozen (−80° C.), while the cell pellets were resuspended in 1 ml RPMI 1640 media (Life Technologies). To count total cells, the cells were stained with Trypan blue and counted using a hemocytometer. To distinguish cell types, an aliquot of the cells were dried on glass slides and stained with Diff Stain kit (IMEB Inc, San Marcos, Calif.) according to the manufacturer's instructions. […]

Another data set has as its system IL-1RA, TNFα, IL-1β. The data set can be described thus: Serum cytokines of CFZ-treated mice. Type of data set: in vivo. As for the experimental part: Clofazimine (CFZ, Sigma-Aldrich, C8895) was prepared in sesame oil (Shirakiku, Japan, or Roland, China) and Powdered Lab Diet 5001 (PMI International, Inc., St. Louis, Mo.) and orally administrated to Wild-type (WT) C57BL/6 mice or IL-1RA^−/− (4-5 week old, Jackson Laboratory, Bar Harbor, Me.) for up to 8 weeks ad libitum as previously described (Baik et al., 2013, supra; Baik et al., 2011, supra). Control mice were fed with the same diet without CFZ. The animal protocol was approved by the University of Michigan's Animal Care and Use Committee in accordance with the National Institutes of Health guidelines (UCUCA #PRO0005111).
Mouse Bronchoalveolar Lavage (BAL) Harvest and Isolation of Alveolar Macrophages, Immunohistochemistry and Imaging, SDS-PAGE and Western Blot, Cytokine Measurements

As to `CC(C)/N=c1\cc2n(-c3ccc(Cl)cc3)c3ccccc3nc-2cc1Nc1ccc(Cl)cc1` [CFZ, 3-(p-chloroanilino)-10-(p-chlorophenyl)-2, 10-dihydro-2-isopropyliminophenazine], the inhibition at 2 µM with TLR4 (2 μM) is 51.2%. Besides, the inhibition at 4 µM in the data set on TLR4 (4 μM) is 76.5%. In data set [1], the PARP cleavage entry was “increased PARP cleavage”. Besides, the IκB phosphorylation entry in the data set with IκB (LPS stimulation) is given as “inhibited LPS/TLR4-mediated IκB phosphorylation”. Further, the IκB phosphorylation result in the data set on IκB (Pam3 stimulation) is reported as “the Pam3/TLR2-mediated response was not affected”. The “TLR2 and TLR4 expression” value in data set [2] was “upregulated TLR2 and TLR4 expression”. In addition, in the data set with TLR2, the “Pam3/TLR2-mediated TNFα production” value is reported as “Pam3/TLR2-mediated TNFα production was not affected”. In data set [3] (8 wk CFZ-treated, two IT LPS 16 mg/kg), this compound displayed a survival rate of 92%. Also, in data set [3] (after LPS), the “TNFα and IL-1RA expression” value was “reduced TNFα and IL-1RA expression after LPS”; the “arterial oxygen levels vs control mice” value was “significantly higher arterial oxygen levels at day 5 and day 6”; the “cell count in bronchioalveolar lavage (BAL)” value is “significantly less cell count in bronchioalveolar lavage”; the “number of mice losing more than 15% weight” value was 1. Besides, the “lung injury vs control mice” value in data set [3] (after LPS instillation) is “notably less lung injury”. Further, the “body temperature drop vs control mice” value in data set [3] (after second LPS injection (day 4)) is “more resistant to temperature drop after the second injection”. Further, the “heart rate, breathing rate and pulse distention vs control mice” value in data set [3] (after the second LPS injection) was “less reduction in heart rate, breathing rate and pulse distention”. Moreover, the “serum IL-1RA levels” value in the data set with IL-1RA, TNFα, IL-1β (8 weeks) is on record as “increase in serum IL-1RA levels”. Also, the “TNFα or IL-1β in the serum” value in the data set with IL-1RA, TNFα, IL-1β (all conditions) is “not possible to detect”.
